In patent US9763954B2, “Therapeutical uses of eslicarbazepine” (BIAL-PORTELA & CA, S.A., priority 2007, dated 2017):
Entries after “also recorded” stand apart in the source; their conditions may differ.

What was measured:
NMRI mice [1] = assay: Formalin paw test; type: in vivo; details: 100 mg/kg p.o., 120 minutes before the test; FIG. 6
Experimental: The method, which detects analgesic/anti-inflammatory activity, follows that described by Wheeler-Aceto et al (Wheeler-Aceto et al., 1991). NMRI mice were given an intraplantar injection of 5% formalin (25 μl) into the posterior left paw. […] The time spent licking was counted for 15 minutes, beginning 15 minutes after injection of formalin. 10 mice were studied per group. The test was performed blind. S-Licarbazepine and R-licarbazepine were tested at the dose of 100 mg/kg p.o., administered 120 minutes before the test (i.e. […]), and compared with a vehicle control group in each experiment.

P-gp or MRP = details: cited from earlier work; for category of P-gp or MRP substrates: AEDs listed in the discussion
[2] = system: patients with drug-resistant epilepsy; details: six months after initiation of therapy; 120 patients who had tried at least 3-4 other AEDs; cited from earlier work
P-glycoprotein (P-gp) = P-glycoprotein (P-gp) (Mus musculus, UniProt P21447); assay: Brain/plasma ratio in mice pre-treated with the P-gp inhibitor verapamil; details: for substrate for P-gp: concluded from verapamil pre-treatment; for effect of verapamil on brain/plasma ratio: verapamil 20 mg/kg 30 min before 100 mg/kg intraperitoneally, FIG. 2
Experimental: (§2) CD-1 mice weighing 30-35 g were maintained under controlled environmental conditions (23-24° C.) for at least 5 days before the experiment. […] In the second series of experiments, mice pre-treated with vehicle, verapamil (20 mg/kg) or probenecid (100 mg/kg) were given 30 min later intraperitoneally S-licarbazepine or R-licarbazepine (100 mg/kg). […] After collection of blood, plasma was obtained by centrifugation. Brain samples were homogenised in phosphate buffer (pH 5; 4 mL/g) followed by centrifugation and collection of the supernatant. Plasma and the tissue supernatant were stored frozen until analysis. The assay of S-licarbazepine and R-licarbazepine was performed using a HPLC-UV or LC-MS method following solid phase extraction.

[3] = Plasma pharmacokinetics after oral administration to CD-1 mice; type: in vivo
Description: (§1) The following pharmacokinetic parameters for S-licarbazepine and R-licarbazepine were derived by non-compartmental analysis from the concentration versus time profiles: maximum observed plasma drug concentration (Cmax), time at which the Cmax occurred (tmax), area under the plasma concentration versus time curve (AUC) from time zero to the last sampling time at which concentrations were at or above the limit of quantification (AUC0-t) and AUC from time zero to infinity (AUC0-∞), elimination half-life (t1/2) and mean residence time (MRT). The pharmacokinetic parameters were determined using WinNonlin (version 4.0). Summary statistics of all data for each treatment and scheduled sampling times were reported, as appropriate, using the geometric mean, arithmetic mean, standard deviation (SD), coefficient of variation (CV), median, minimum and maximum. The statistical package SAS Version 8.2 or higher (SAS Institute, Cary, USA) was used in all computations when considered appropriate.

NMRI mice [4] = assay: Corneal kindling procedure (acquisition of kindling); type: in vivo
Experimental: Vehicle (30% DMSO in distilled water) or the compounds dissolved in 30% DMSO were administered intraperitoneally twice daily. NMRI mice were stimulated twice daily (interstimulation interval 6-7 h) on twelve consecutive days. The electrostimulations with current intensities of 3 mA and duration of 3 s (pulse frequency 50 Hz) were applied via corneally placed saline-soaked copper electrodes. A stimulator was used to deliver a constant current regardless of the impedance of the test object. Seizure severity was ranked according to a modified system of Racine (Racine, 1972): 1, mild facial clonus and eye blinking; 2, severe facial clonus, head nodding, chewing; 3, unilateral or alternating forelimb clonus; 4, bilateral forelimb clonus with rearing […]; 5, bilateral forelimb clonus with rearing and falling; 6, tonic fore- and/or hindlimb extension.

[5] = Brain pharmacokinetics (brain access) after oral administration to CD-1 mice; type: in vivo; details: for presence of the opposite enantiomer in brain: analyte found after administration of the other enantiomer
Description: as §1

[6] = system: Multiple Resistant Proteins (MRP); assay: Brain/plasma ratio in mice pre-treated with the MRP inhibitor probenecid; details: for substrate for MRP: concluded from probenecid pre-treatment
Experimental: as §2

[7] = system: partial epilepsy refractory patients; details: cited from earlier work
[8] = plasma, after 350 mg/kg R-licarbazepine oral, CD-1 mice
[9] = 100 mg/kg twice daily, twelve days
[10] = brain, after 350 mg/kg R-licarbazepine oral, CD-1 mice
[11] = eslicarbazepine acetate 100 mg/kg, i.p., FIG. 3

P-glycoprotein (P-gp), sequence (P21447 whole entry): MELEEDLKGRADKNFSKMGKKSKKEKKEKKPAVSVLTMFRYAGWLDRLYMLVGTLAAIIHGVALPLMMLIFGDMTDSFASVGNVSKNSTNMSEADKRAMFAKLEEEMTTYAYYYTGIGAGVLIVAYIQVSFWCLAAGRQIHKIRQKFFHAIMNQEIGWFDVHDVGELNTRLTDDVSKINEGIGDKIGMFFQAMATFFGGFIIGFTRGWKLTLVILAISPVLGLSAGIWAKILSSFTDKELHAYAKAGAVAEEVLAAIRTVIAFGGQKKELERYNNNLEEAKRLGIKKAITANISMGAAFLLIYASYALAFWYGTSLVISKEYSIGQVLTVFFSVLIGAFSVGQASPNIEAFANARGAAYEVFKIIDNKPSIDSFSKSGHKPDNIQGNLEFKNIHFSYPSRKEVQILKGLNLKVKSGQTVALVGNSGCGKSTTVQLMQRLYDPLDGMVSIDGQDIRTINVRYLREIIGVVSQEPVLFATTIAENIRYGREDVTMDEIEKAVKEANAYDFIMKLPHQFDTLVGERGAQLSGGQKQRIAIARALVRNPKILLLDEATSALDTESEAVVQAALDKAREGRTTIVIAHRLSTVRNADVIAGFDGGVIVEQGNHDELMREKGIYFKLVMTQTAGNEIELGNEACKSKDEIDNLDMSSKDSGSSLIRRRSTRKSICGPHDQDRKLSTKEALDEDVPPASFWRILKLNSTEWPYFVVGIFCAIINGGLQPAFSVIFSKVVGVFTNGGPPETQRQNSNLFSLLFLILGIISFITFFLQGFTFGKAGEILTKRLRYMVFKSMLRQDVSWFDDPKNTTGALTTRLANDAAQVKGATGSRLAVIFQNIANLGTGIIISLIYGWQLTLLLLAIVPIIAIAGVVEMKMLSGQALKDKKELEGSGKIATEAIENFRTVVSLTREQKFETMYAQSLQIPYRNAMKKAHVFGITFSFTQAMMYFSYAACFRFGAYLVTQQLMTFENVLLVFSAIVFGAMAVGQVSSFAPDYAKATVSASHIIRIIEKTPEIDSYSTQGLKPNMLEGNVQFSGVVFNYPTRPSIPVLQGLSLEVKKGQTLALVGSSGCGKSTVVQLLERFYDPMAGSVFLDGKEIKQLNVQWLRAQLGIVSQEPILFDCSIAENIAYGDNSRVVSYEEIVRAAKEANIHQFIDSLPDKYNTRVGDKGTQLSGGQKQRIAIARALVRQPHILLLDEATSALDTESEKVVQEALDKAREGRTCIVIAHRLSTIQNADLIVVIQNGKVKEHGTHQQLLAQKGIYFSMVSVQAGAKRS

NCC1(CC(=O)O)CCCCC1 [Gabapentin]
licking time versus vehicle controls (NMRI mice [1]): significantly (p<0.05) decreased

CC[C@@H](C(N)=O)N1CCCC1=O [Levetiracetam]
substrate for either P-gp or MRP1/2 (P-gp or MRP; verapamil and probenecid did not increase brain penetration): not to be a substrate
patients seizure-free [2]: 32%

NC(=O)N1c2ccccc2C[C@@H](O)c2ccccc21 [R-licarbazepine]
substrate for P-gp (P-glycoprotein (P-gp)): is a substrate
effect of verapamil on brain/plasma ratio (P-glycoprotein (P-gp)): markedly increased; also recorded: equals that of S-licarbazepine in vehicle-treated animals
absorption after oral administration ([3]; oral, CD-1 mice): rapidly absorbed
AUC0-∞ [3, 8]: 231.716 µg·h/mL
AUC(0-t) [3, 8]: 203.705 µg·h/mL
Cmax [3, 8]: 69946 ng/mL
MRT [3, 8]: 10.12 h
tmax [3, 8]: 0.25 h
t½ [3, 8]: 8.11 h
elimination half-life (t1/2) ([3]; plasma, approximate value stated for both enantiomers): ≈ 8 h
licking time versus vehicle controls (NMRI mice [1]): did not attain statistical significance
effect on acquisition of kindling (NMRI mice [4]; 100 mg/kg twice daily intraperitoneally, twelve days): no inhibitory effect
adverse effects during the course of the experiment (NMRI mice [4]; [9]): no adverse effects were obvious
mean seizure severity versus vehicle control group (NMRI mice [4]; 100 mg/kg twice daily, S-lic: all sessions of first three days, R-lic: all sessions except afternoon of day 8): no significant differences
number of stimulations necessary to induce a seizure with a given severity score (NMRI mice [4]; 100 mg/kg twice daily, score 3 and 4 (S-lic), score 3, 4, 5 and 6 (R-lic), versus control): did not differ
animals that had reached the kindling criterion (at least one generalized seizure, score 4-6) (NMRI mice [4]; at termination of treatment, day 12): all of the treated animals
presence of the opposite enantiomer in brain [5]: almost negligible
AUC0-∞ [5, 10]: 60.037 µg·h/mL
AUC(0-t) [5, 10]: 51.516 µg·h/mL
Cmax [5, 10]: 8533 ng/mL
MRT [5, 10]: 11.34 h
tmax [5, 10]: 0.75 h
t½ [5, 10]: 7.91 h
substrate for MRP [6]: not for MRP

NC(=O)N1c2ccccc2C[C@H](O)c2ccccc21 [S-licarbazepine, (S)-(+)-10,11-dihydro-10-hydroxy-5H dibenz/b,f/azepine-5-carboxamide]
substrate for P-gp (P-glycoprotein (P-gp)): not a substrate
effect of verapamil on brain/plasma ratio (P-glycoprotein (P-gp)): failed to affect
MRT ([3]; CD-1, mouse, oral, 350 mg/kg, plasma, approximate range stated for both enantiomers, read-out: mean residence time (MRT)): 10 to 12 h
half-life ([3]; CD-1, mouse, oral, 350 mg/kg, plasma, approximate value stated for both enantiomers, read-out: elimination half-life (t1/2) (converted)): ~8 h
AUC(0-t) ([3]; CD-1, mouse, plasma, po, 350 mg/kg, plasma, after 350 mg/kg R-licarbazepine oral, CD-1 mice, read-out: AUC0-t): 4.58 µg·h/mL
Cmax ([3]; CD-1, mouse, plasma, po, 350 mg/kg, plasma, after 350 mg/kg R-licarbazepine oral, CD-1 mice, read-out: Cmax): 1020 ng/mL
AUC(0-t) ([3]; CD-1, mouse, plasma, po, 350 mg/kg, plasma, after 350 mg/kg S-licarbazepine oral, CD-1 mice, read-out: AUC0-t): 187 µg·h/mL
Cmax ([3]; CD-1, mouse, plasma, po, 350 mg/kg, plasma, after 350 mg/kg S-licarbazepine oral, CD-1 mice, read-out: Cmax): 41300 ng/mL
amount detectable in plasma ([3]; S-licarbazepine in plasma after administration of R-licarbazepine): small amounts
AUC(0-inf) ([3]; mouse, plasma, after 350 mg/kg S-licarbazepine oral, CD-1 mice): 258 µg·h/mL
MRT ([3]; mouse, plasma, after 350 mg/kg S-licarbazepine oral, CD-1 mice, read-out: MRT): 11.7 h
tmax ([3]; mouse, plasma, after 350 mg/kg S-licarbazepine oral, CD-1 mice, read-out: tmax): 0.25 h
half-life ([3]; mouse, plasma, after 350 mg/kg S-licarbazepine oral, CD-1 mice, read-out: t½ (converted)): 7.93 h
absorption after oral administration ([3]; oral, CD-1 mice): rapidly absorbed
adverse effects during the course of the experiment (NMRI mice [4]; [9]): no adverse effects were obvious
brain/plasma ratio (considering either Cmax or AUC) ([5]; FIG. 1, compared with R-licarbazepine): considerably greater
presence of the opposite enantiomer in brain [5]: almost negligible
AUCbrain(S-Licarbazepine)/AUCbrain(R-Licarbazepine) ([5]; brain exposure ratio, each enantiomer given orally 350 mg/kg): 1.9
AUC(0-inf) ([5]; mouse, brain, after 350 mg/kg S-licarbazepine oral, CD-1 mice): 111 µg·h/mL
AUC(0-t) ([5]; mouse, brain, after 350 mg/kg S-licarbazepine oral, CD-1 mice, read-out: AUC0-t): 109 µg·h/mL
Cmax ([5]; mouse, brain, after 350 mg/kg S-licarbazepine oral, CD-1 mice, read-out: Cmax): 12300 ng/mL
MRT ([5]; mouse, brain, after 350 mg/kg S-licarbazepine oral, CD-1 mice, read-out: MRT): 7.84 h
tmax ([5]; mouse, brain, after 350 mg/kg S-licarbazepine oral, CD-1 mice, read-out: tmax): 1 h
half-life ([5]; mouse, brain, after 350 mg/kg S-licarbazepine oral, CD-1 mice, read-out: t½ (converted)): 4.87 h
substrate for MRP [6]: not a substrate
effect of probenecid on brain/plasma ratio ([6]; probenecid 100 mg/kg 30 min before 100 mg/kg intraperitoneally, FIG. 2): failed to affect

NC(=O)N1c2ccccc2C=Cc2ccccc21 [carbamazepine]
category of P-gp or MRP substrates (P-gp or MRP): P-gp or MRP substrates

CC(=O)O[C@H]1Cc2ccccc2N(C(N)=O)c2ccccc21 [eslicarbazepine acetate, (S)-(−)-10-acetoxy-10,11-dihydro-5H-dibenz/b,f/azepine-5-carboxamide]
effect of verapamil on S-licarbazepine brain/plasma ratio after eslicarbazepine acetate (P-glycoprotein (P-gp); [11]): failed to affect
patients that became seizure free ([7]; 1 month after initiation of therapy): approximately 25%
efficacy in partial epilepsy refractory patients ([7]; administered once-daily): very efficacious
effect of probenecid on S-licarbazepine brain/plasma ratio after eslicarbazepine acetate [6, 11]: failed to affect

NC(=O)OCC(COC(N)=O)c1ccccc1 [felbamate]
category of P-gp or MRP substrates (P-gp or MRP): P-gp or MRP substrates

NC(=O)N1c2ccccc2CC(=O)c2ccccc21 [oxcarbazepine]
category of P-gp or MRP substrates (P-gp or MRP): P-gp or MRP substrates

CCC1(c2ccccc2)C(=O)NC(=O)NC1=O [phenobarbital]
category of P-gp or MRP substrates (P-gp or MRP): P-gp or MRP substrates

O=C1NC(=O)C(c2ccccc2)(c2ccccc2)N1 [phenytoin]
category of P-gp or MRP substrates (P-gp or MRP): P-gp or MRP substrates
